Tested on: PC-3 cells
Test: Cell growth of PC-3 cells (cell counting)
Type: cell-based, human
Protocol: The PC-3 and DU-145 cells (the cell number of 1×10^5/in 1 ml of a culture fluid per hole using a 24-hole plate) were cultured in a DMEM culture fluid (containing 10% of FBS, 1% of P/S, and 1% of fungizone) containing the DHMBA (1 and 10 μM) under 5% of CO2, at 37° C., for one, two, three, four, and six days. […] After the culture, 0.1 ml of 0.05% trypsin-EDTA solution obtained by dissolving the cells adhering to the bottom surface of the culture dish in PBS (Thermo Fisher Scientific, Waltham, MA, USA) not containing Ca^2+/Mg^2+ was added, incubation was performed at 37° C. for two minutes to release the adhering cells, and 0.9 ml of the DMEM culture fluid containing 10% of FBS and 1% of P/S was added to stop the reaction. The cell number in the cell suspension was counted by the method described in the item of “Measurement of Cell Number.”
After the culture of the cells, 0.1 ml of 0.05% trypsin-EDTA solution obtained by dissolving the cells adhering to the bottom surface of the culture dish in PBS (Thermo Fisher Scientific, Waltham, MA, USA) not containing Ca^2+/Mg^2+ was added, incubation was performed at 37° C. for two minutes to release the adhering cells, and 0.9 ml of the DMEM culture fluid containing 10% of FBS and 1% of P/S was added to stop the reaction. The visible cells were counted by the Olympus MTV-3 microscope using a hemocytometer (Sigma-Aldrich).
FIG. 1(C) is a diagram in which the PC-3 cells (1×10^5 cells/per well of a 24-well plate) were cultured under 5% of CO2, at 37° C., for one to six days in a DMEM culture fluid (containing 10% of FBS, 1% of P/S, and 1% of fungizone) containing the DHMBA (10 μM).
In FIGS. 1(D) and 1(E), the PC-3 cells (1×10^5 cells/per well of a 24-well plate) were cultured under 5% of CO2, at 37° C., for three (FIG. 1D) and six (FIG. 1E) days in a DMEM culture fluid (containing 10% of FBS, 1% of P/S, and 1% of fungizone) containing the DHMBA (0.01, 0.1, 1, 10, 100, and 1000 μM). After the culture, the cells adhered to the bottom surface of the dish were removed and counted. […] 1-way ANOVA, Tukey-Kramer post-test.
FIGS. 3(A) and 3(B) are diagrams in which the PC-3 cells (1×10^5 cells/ml/per well of a 24-well plate) were cultured under 5% of CO2, at 37° C., for three days in a DMEM culture fluid (containing 10% of FBS, 1% of P/S, and 1% of fungizone) containing the DHMBA (10 μM) containing cell cycle inhibitors, roscovitine (10 and 100 nM), butyrate (10 and 100 μM), and sulforaphane (1 and 10 nM).
After the culture, the cells adhered to the dish were removed and counted. […] 1-way ANOVA, Tukey-Kramer post-test.
In the drawing, the PC-3 cells (1×10^5/in 1 ml of a culture fluid per hole using a 24-hole plate) were cultured under 5% of CO2, at 37° C., for three days in a DMEM culture fluid (containing 10% of FBS, 1% of P/S, and 1% of fungizone) in the presence of the DHMBA (10 μM) and an aryl hydrocarbon receptor inhibitor CH223191 (1, 10, or 25 μM) to examine the action on cell growth.

Structure (SMILES): COc1c(O)cc(CO)cc1O [DHMBA, 3,5-dihydroxy-4-methoxybenzyl alcohol]
- effect on cell growth at low concentration (DHMBA 0.01 μM): significant effect
- cell growth inhibitory effect of DHMBA in the presence of CH223191 (DHMBA 10 μM with CH223191 1, 10, or 25 μM, three days): found not to be expressed
- cell growth inhibitory effect of DHMBA in the presence of cell cycle inhibitors (DHMBA 10 μM with roscovitine, butyrate or sulforaphane, three days): not observed
- cell growth inhibitory effect of DHMBA in the presence of signaling inhibitors (DHMBA 10 μM with wortmannin, PD98059 or staurosporine, three days): no significant cell growth inhibitory effect
- cell growth (DHMBA 10 μM, one to six days): inhibited
